In patent publication US9096591B2, “Tetracyclic compounds” (Medivation Technologies, Inc., priority 2007, dated 2015):
Like-named read-outs stand apart in the source and are kept apart here.

How the values were obtained:
[1] = molecular target: T1, human recombinant histamine H2 receptor (Homo sapiens, UniProt P25021); assay: Histamine H2 radioligand binding ([125I]Aminopotentidine)
T1 construct: expressed in transfected cells; host or cells: CHO-K1 cells
Method: Non-specific binding was estimated in the presence of 3 μM Tiotidine. […] Biochemical assay results are presented as the percent inhibition of specific binding in Table 5.
Non-specific binding was estimated in the presence of 3 μM Tiotidine. […] Compounds were screened at 1 μM, using 1% DMSO as vehicle. Biochemical assay results are presented as the percent inhibition of specific binding in Table 6.

[2] = molecular target: T2, human recombinant histamine H1 receptor (Homo sapiens, UniProt P35367); assay: Histamine H1 radioligand binding ([3H]Pyrilamine)
T2 construct: expressed in transfected cells; host or cells: CHO cells
Method: To evaluate in radioligand binding assays the activity of compounds of the invention, human recombinant histamine H1 receptor expressed in Chinese hamster ovary (CHO) cells (De Backer M D et al. Biochem. Biophys. Res Comm. 197(3):1601, 1993) in a modified Tris-HCl buffer (50 mM Tris-HCl, pH 7.4, 2 mM MgCl2, 100 mM NaCl, 250 mM Sucrose) were used. […] Non-specific binding was estimated in the presence of 1 μM pyrilamine. Receptor proteins were filtered and washed, the filters were then counted to determine [^3H]pyrilamine specifically bound. […] Biochemical assay results are presented as the percent inhibition of specific binding in Table 5.
To evaluate in radioligand binding assays the activity of compounds of the invention, human recombinant histamine H1 receptor expressed in Chinese hamster ovary (CHO) cells (De Backer, M. D. et al., Biochem. Biophys. Res. Comm. 197(3):1601, 1993) in a modified Tris-HCl buffer (50 mM Tris-HCl, pH 7.4, 2 mM MgCl2, 100 mM NaCl, 250 mM Sucrose) was used. […] Non-specific binding was estimated in the presence of 1 μM pyrilamine. Receptor proteins were filtered and washed, the filters were then counted to determine [^3H]Pyrilamine specifically bound. Compounds were screened at 1 μM, using 1% DMSO as vehicle. Biochemical assay results are presented as the percent inhibition of specific binding in Table 6.

[3] = molecular target: T3, human recombinant serotonin (5-Hydroxytryptamine) 5-HT2A receptor (Homo sapiens, UniProt P28223); assay: Serotonin 5-HT2A radioligand binding ([3H]Ketanserin); details: percent inhibition of specific binding
T3 construct: expressed in transfected cells; host or cells: CHO-K1 cells
Method: Compounds of the invention were incubated with 0.5 nM [^3H]Ketanserin for 60 minutes at 25° C. Non-specific binding was estimated in the presence of 1 μM Mianserin. Receptor proteins were filtered and washed, the filters were then counted to determine [^3H]Ketanserin specifically bound. […] Biochemical assay results are presented as the percent inhibition of specific binding in Table 6.

[4] = molecular target: T4, human recombinant adrenergic α2A receptor (Homo sapiens, UniProt P08913); assay: Adrenergic α2A radioligand binding ([3H]MK-912); set-up: Inhibition of ligand binding, Adren. alpha2A: concentration or dose not given beside the values; details: percent inhibition of specific binding
T4 construct: expressed in transfected cells; host or cells: insect Sf9 cells
T4 sequence (P08913 1-465): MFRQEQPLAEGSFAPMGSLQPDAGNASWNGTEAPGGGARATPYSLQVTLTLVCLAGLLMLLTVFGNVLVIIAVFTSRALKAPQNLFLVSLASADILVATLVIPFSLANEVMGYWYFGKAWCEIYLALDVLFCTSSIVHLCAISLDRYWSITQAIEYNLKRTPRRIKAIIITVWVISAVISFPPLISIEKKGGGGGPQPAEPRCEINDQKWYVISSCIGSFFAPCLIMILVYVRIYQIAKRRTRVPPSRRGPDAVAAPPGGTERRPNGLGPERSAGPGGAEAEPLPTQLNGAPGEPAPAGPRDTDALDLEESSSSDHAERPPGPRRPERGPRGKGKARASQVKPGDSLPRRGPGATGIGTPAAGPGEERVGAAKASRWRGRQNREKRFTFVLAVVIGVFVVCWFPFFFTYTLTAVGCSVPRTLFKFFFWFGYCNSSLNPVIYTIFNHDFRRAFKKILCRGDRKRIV
Method: To evaluate in radioligand binding assays the activity of compounds of the invention, human recombinant adrenergic α2A receptor expressed in insect Sf9 cells (Uhlen S et al. J Pharmacol Exp Ther. 271:1558, 1994) in a modified Tris-HCl buffer (50 mM Tris-HCl, pH 7.4, 12.5 mM MgCl2, 2 mM EDTA) was used. Compounds of invention were incubated with 1 nM [^3H]MK-912 for 60 minutes at 25° C. MK912 is (2S-trans)-1,3,4,5′,6,6′,7,12b-octahydro-1′,3′-dimethyl-spiro[2H-benzofuro[2,3-a]quinolizine-2,4′(1′H)-pyrimidin]-2′(3′H)-one hydrochloride Non-specific binding was estimated in the presence of 10 μM WB-4101 (2-(2,6-Dimethoxyphenoxyethyl)aminomethyl-1,4-benzodioxane hydrochloride). Receptor proteins were filtered and washed, the filters were then counted to determine [^3H]MK-912 specifically bound. […] Biochemical assay results are presented as the percent inhibition of specific binding in Table 6.

[5] = 1 μM compound, 0.1 nM [125I]Aminopotentidine, read-out: Histamine Binding H2, percent inhibition of specific binding
[6] = percent inhibition of specific binding, screened at 1 μM, read-out: Inhibition of ligand binding, Hist. H2
[7] = 1 μM compound, […] [3H]Pyrilamine, read-out: Histamine Binding H1, percent inhibition of specific binding
[8] = percent inhibition of specific binding, screened at 1 μM, read-out: Inhibition of ligand binding, Hist. H1

T1 sequence (P25021 whole entry): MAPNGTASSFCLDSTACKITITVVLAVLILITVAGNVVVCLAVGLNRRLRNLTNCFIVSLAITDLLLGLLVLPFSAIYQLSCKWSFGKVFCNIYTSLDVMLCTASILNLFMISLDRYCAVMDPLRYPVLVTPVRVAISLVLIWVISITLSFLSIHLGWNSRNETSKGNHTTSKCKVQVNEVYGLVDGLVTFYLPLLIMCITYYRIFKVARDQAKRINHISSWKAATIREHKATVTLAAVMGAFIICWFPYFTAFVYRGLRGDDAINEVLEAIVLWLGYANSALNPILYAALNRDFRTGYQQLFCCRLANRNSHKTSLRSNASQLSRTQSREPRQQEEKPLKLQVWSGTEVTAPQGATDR
T2 sequence (P35367 whole entry): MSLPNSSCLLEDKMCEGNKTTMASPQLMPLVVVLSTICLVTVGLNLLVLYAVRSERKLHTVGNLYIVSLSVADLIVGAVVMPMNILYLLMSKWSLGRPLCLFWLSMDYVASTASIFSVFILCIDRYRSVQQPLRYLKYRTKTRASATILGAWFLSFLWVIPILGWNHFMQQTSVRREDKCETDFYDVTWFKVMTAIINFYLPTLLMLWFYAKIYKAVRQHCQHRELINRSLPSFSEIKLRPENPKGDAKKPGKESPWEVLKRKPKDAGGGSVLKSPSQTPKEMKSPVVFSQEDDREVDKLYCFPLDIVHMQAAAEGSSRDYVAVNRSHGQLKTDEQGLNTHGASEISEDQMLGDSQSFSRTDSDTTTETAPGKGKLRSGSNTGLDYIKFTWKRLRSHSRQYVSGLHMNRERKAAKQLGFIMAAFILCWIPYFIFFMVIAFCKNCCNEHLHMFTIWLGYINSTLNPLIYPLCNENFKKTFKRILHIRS
T3 sequence (P28223 whole entry): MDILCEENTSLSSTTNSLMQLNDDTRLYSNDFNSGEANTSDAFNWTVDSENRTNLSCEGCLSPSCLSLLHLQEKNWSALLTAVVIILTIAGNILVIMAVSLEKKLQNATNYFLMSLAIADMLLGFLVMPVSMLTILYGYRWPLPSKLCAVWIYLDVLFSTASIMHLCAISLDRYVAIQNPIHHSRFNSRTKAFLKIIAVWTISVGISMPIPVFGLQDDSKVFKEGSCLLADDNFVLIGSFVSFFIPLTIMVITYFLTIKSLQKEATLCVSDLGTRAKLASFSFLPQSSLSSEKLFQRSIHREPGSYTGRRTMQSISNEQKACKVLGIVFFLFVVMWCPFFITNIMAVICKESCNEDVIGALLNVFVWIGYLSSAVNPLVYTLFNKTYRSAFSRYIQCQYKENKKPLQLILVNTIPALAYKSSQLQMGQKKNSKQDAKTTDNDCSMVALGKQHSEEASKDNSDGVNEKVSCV

Row | SMILES | inhibition at 1 µM [1, 5] [%] | inhibition at 1 µM [1, 6] [%] | inhibition at 1 µM [2, 7] [%] | inhibition at 1 µM [2, 8] [%] | Inhibition of ligand binding, Ser. 5-HT2A [3] [%] | Inhibition of ligand binding, Adren. alpha2A [4] [%] | inhibition at 0.3 µM ([1]; 0.3 μM compound, 0.1 nM [125I]Aminopotentidine, read-out: Histamine Binding H2, percent inhibition of specific binding) [%] | inhibition at 0.03 µM ([2]; 0.03 μM compound, […] [3H]Pyrilamine, read-out: Histamine Binding H1, percent inhibition of specific binding) [%] | inhibition at 0.1 µM ([2]; 0.1 μM compound, […] [3H]Pyrilamine, read-out: Histamine Binding H1, percent inhibition of specific binding) [%]
1 | CN1CCc2c(c3ccccc3n2CCc2ccncc2)C1 [Compound 10, 2,3,4,5-tetrahydro-2-methyl-5-(2-(pyridin-4-yl)ethyl)-1H-pyrido[4,3-b]indole] | 12 | 12 | 88 | 88 | 69 | 33 | – | – | –
2 | CCN1CCc2c(c3ccccc3n2CCc2ccccc2)C1 [Compound 4, 2-ethyl-2,3,4,5-tetrahydro-5-phenethyl-1H-pyrido[4,3-b]indole] | 51 | 51 | 93 | 93 | 102 | 82 | 34 | 47 | 73
3 | Cc1ccc(Cn2c3c(c4ccccc42)CN(C)CC3)cn1 [Compound 17, 2,3,4,5-tetrahydro-2-methyl-5-((6-methylpyridin-3-yl)methyl)-1H-pyrido[4,3-b]indole] | -2 | -2 | 15 | 15 | −7 | 56 | – | – | –
4 | CCN1CCc2c(c3cc(C)ccc3n2CCc2ccccn2)C1 [Compound 23, 2-ethyl-2,3,4,5-tetrahydro-8-methyl-5-(2-(pyridin-2-yl)ethyl)-1H-pyrido[4,3-b]indole] | 28 | 28 | 69 | 69 | 78 | 57 | – | – | –
5 | CCN1CCc2c(c3ccccc3n2Cc2ccccc2)C1 [Compound 16, 5-benzyl-2-ethyl-2,3,4,5-tetrahydro-1H-pyrido[4,3-b]indole] | 3 | 3 | 10 | 10 | 14 | 10 | – | – | –
6 | Cc1ccc2c(c1)c1c(n2Cc2ccc(C)nc2)CCN(C)C1 [Compound 139, 2,3,4,5-tetrahydro-2,8-dimethyl-5-((6-methylpyridin-3-yl)methyl)-1H-pyrido[4,3-b]indole] | – | 7 | 81 | 74 | 2 | 50 | – | – | –
7 | CCN1CCc2c(c3cc(C)ccc3n2Cc2ccccc2)C1 [Compound 140, 5-benzyl-2-ethyl-2,3,4,5-tetrahydro-8-methyl-1H-pyrido[4,3-b]indole] | 45 | 45 | 15 | 15 | −3 | 17 | – | – | –
8 | CCN1CCc2c(c3cc(C)ccc3n2CCc2ccc(C)nc2)C1 [Compound 31, 2-ethyl-2,3,4,5-tetrahydro-8-methyl-5-(2-(6-methylpyridin-3-yl)ethyl)-1H-pyrido[4,3-b]indole] | 34 | 34 | 100 | 100 | 65 | 66 | – | – | –
9 | CCN1CCc2c(c3ccccc3n2CCc2ccc(C)cc2)C1 [Compound 3, 2-ethyl-2,3,4,5-tetrahydro-5-(4-methylphenethyl)-1H-pyrido[4,3-b]indole] | 51 | 51 | 88 | 88 | 98 | 86 | – | – | –
10 | CCN1CCc2c(c3cc(C)ccc3n2Cc2ccc(C)nc2)C1 [Compound 138, 2-ethyl-2,3,4,5-tetrahydro-8-methyl-5-((6-methylpyridin-3-yl)methyl)-1H-pyrido[4,3-b]indole] | 27 | 27 | 68 | 68 | 14 | 31 | – | – | –
11 | CN1CCc2c(c3ccccc3n2CCc2ccccn2)C1 [Compound 329, 2,3,4,5-tetrahydro-2-methyl-5-(2-(pyridin-2-yl)ethyl)-1H-pyrido[4,3-b]indole] | – | 16 | – | 18 | 70 | 37 | – | – | –
12 | CCN1CCc2c(c3ccccc3n2CCc2ccncc2)C1 [Compound 5] | 2 | 2 | 82 | 82 | 55 | 20 | – | – | –
13 | Cc1ccc2c(c1)c1c(n2CCC(=O)N2CCC(N)CC2)CCN(C)C1 [Compound 231, 1-(4-aminopiperidin-1-yl)-3-(1,2,3,4-tetrahydro-2,8-dimethylpyrido[4,3-b]indol-5-yl)propan-1-one] | 4 | 4 | -11 | -11 | 5 | 29 | – | – | –
14 | CCN1CCc2c(c3ccccc3n2CCc2ccccn2)C1 [Compound 6] | -3 | -3 | 32 | 32 | 74 | 20 | – | – | –
15 | Cc1ccc2c(c1)c1c(n2CCc2ccc(C(=O)O)nc2)CCN(C)C1 [Compound 255] | -15 | -15 | 71 | 71 | 1 | −8 | – | – | –
16 | Cc1ccc2c(c1)c1c(n2CCc2ccccn2)CCN(C)C1 [Compound 21, 2,3,4,5-tetrahydro-2,8-dimethyl-5-(2-(pyridin-2-yl)ethyl)-1H-pyrido[4,3-b]indole] | 45 | 45 | 79 | 79 | 94 | – | – | – | –
